Measured values taken from patent US20240270821A1, “GIP/GLP1/GCG TRI-RECEPTOR AGONISTS AND USES THEREOF” (priority 2023, published 2024).
Like-named read-outs stand apart in the source and are kept apart here. Starred links: 1 amine or outer side, 2 acyl side, 3 side chain; linkers in the order of their positions; H or OH if unused. Non-standard residues stand in square brackets, D forms with d. Groups on a side chain read outwards from the residue. *: point of attachment. C20 diacid = O=C(O)CCCCCCCCCCCCCCCCCCC(=O)*; C18 diacid = O=C(O)CCCCCCCCCCCCCCCCC(=O)*; αMePhe(2-F) = C[C@](N)(Cc1ccccc1F)C(=O)O; γGlu = O=C(O)[C@H](CCC(=O)[*:2])N[*:1]; αMeY = C[C@](N)(Cc1ccc(O)cc1)C(=O)O; 4Pal = N[C@@H](Cc1ccncc1)C(=O)O; Aad = N[C@@H](CCCC(=O)O)C(=O)O; Orn = NCCC[C@H](N)C(=O)O; AEEA = NCCOCCOCC(=O)O; Aib = CC(C)(N)C(=O)O

Experiments:
Format in all cases: cell-based
hGIPR [1] = target: T1, hGIPR (Homo sapiens, UniProt P48546); assay: Functional cAMP activity in the presence of 1% HSA; settings: read-out: cAMP Rel EC50, hGIPR
T1 sequence (P48546 22-466): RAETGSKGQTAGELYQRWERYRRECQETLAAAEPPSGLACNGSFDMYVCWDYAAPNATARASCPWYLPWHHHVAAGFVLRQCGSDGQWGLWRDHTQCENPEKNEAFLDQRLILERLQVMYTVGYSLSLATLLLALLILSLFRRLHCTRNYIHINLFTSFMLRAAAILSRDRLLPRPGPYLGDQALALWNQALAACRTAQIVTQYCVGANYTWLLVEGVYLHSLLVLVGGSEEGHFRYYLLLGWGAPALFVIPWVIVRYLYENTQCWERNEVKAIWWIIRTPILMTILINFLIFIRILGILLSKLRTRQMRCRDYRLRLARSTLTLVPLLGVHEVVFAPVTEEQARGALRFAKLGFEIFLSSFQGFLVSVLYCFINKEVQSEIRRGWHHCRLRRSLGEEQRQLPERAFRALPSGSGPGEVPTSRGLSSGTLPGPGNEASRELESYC

hGLP-1R [2] = target: T2, hGLP-1R (Homo sapiens, UniProt P43220); assay: Functional cAMP activity in the presence of 1% HSA; settings: read-out: cAMP Rel EC50, hGLP-1R
human GcgR = human GcgR (Homo sapiens, UniProt P47871); assay: Functional cAMP activity in the presence of 1% HSA; settings: read-out: cAMP Rel EC50, hGcgR
hGIPR [3] = target: T1, hGIPR; assay: Functional cAMP activation in the presence of 0.1% casein (no HSA); settings: read-out: Relative cAMP EC50, hGIPR;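 for Relative cAMP EC50, hGIPR: intracellular cAMP rise after 30 min at 37 °C read by HTRF against a standard curve, scaled between buffer alone (0%) and top control ligand concentration (100%), four-parameter fit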;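 for Relative cAMP EC50, hGLP-1R: intracellular cAMP rise after 30 min at 37 °C read by HTRF, normalized between buffer only (0%) and maximal control ligand (100%), four-parameter variable-slope fit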;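 for Relative cAMP EC50, hGcgR: intracellular cAMP rise after 30 min at 37 °C, read by HTRF against a cAMP standard curve, scaled from buffer only (0%) to maximal control ligand response (100%)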
hGLP-1R [4] = target: T2, hGLP-1R; assay: as above; settings: read-out: Relative cAMP EC50, hGLP-1R
hGcgR = hGcgR (Homo sapiens, UniProt P47871); assay: as above; settings: read-out: Relative cAMP EC50, hGcgR;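 note: intracellular cAMP rise after 30 min at 37 °C, read by HTRF against a cAMP standard curve, scaled from buffer only (0%) to maximal control ligand response (100%)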
[5] = in the presence of 0.1% casein (no HSA), geometric mean

T2 sequence (P43220 24-463): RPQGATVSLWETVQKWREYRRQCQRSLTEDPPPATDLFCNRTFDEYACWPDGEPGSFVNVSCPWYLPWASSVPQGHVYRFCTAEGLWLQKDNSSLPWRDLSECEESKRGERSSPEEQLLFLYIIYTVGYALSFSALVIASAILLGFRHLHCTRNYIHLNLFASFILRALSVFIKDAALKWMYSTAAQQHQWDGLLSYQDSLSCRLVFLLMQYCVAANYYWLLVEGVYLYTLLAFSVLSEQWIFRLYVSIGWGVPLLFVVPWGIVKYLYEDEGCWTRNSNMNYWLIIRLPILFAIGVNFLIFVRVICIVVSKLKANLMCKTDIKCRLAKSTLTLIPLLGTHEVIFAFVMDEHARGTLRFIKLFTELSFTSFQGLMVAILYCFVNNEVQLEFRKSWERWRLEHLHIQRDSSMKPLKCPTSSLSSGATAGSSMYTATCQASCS
Sequence of hGcgR (P47871 26-477): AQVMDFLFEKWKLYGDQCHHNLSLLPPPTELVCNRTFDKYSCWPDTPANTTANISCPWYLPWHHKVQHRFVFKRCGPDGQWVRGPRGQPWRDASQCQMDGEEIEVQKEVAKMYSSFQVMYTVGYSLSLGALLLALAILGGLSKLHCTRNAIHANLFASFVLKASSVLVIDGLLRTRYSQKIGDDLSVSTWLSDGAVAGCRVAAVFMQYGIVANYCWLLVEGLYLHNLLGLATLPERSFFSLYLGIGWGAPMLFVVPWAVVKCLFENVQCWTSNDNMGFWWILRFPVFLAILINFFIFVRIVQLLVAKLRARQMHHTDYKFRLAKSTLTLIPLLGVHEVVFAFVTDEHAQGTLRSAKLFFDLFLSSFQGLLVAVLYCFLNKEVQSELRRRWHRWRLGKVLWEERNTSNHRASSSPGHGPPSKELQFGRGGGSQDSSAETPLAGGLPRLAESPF
Sequence of human GcgR (P47871 26-477): as above

Row | EC50 (hGIPR [3]; [5]) | EC50 (hGLP-1R [4]; [5]) | EC50 (hGcgR; [5]) | Substance | EC50 (hGIPR [1]) | EC50 (hGLP-1R [2]) | EC50 (human GcgR) | EC50 (hGIPR [3]) | EC50 (hGLP-1R [4]) | EC50 (hGcgR)
1 | – | – | – | H-Y[Aib]QGT[αMePhe(2-F)]TSD[4Pal]SILLDKK([AEEA-γGlu-C18 diacid])AQ[Aib]AFIEYLEEGGPSSGAPPPSGTGE-NH2 [Example 662] | 4.69 nM | 84.5 nM | 561 nM | 0.0704 nM | 0.946 nM | 4.81 nM
2 | – | – | – | H-Y[Aib]QGT[αMePhe(2-F)]TSD[4Pal]SILLDKK([AEEA-γGlu-C18 diacid])AQ[Aib]AFIEYL[Aad]EGGPSSGAPPPSGTGE-NH2 [Example 663] | 10.2 nM | 79 nM | 226 nM | 0.0893 nM | 1.29 nM | 1.95 nM
3 | – | – | – | H-Y[Aib]QGT[αMePhe(2-F)]TSD[4Pal]SILLDKK([AEEA-γGlu-C18 diacid])AQ[Aib]AFIE[αMeY]LEEGGPSSGAPPPSGTGE-NH2 [Example 669] | 1.41 nM | 27.3 nM | 173 nM | 0.0145 nM | 0.27 nM | 1.76 nM
4 | – | – | – | H-Y[Aib]QGT[αMePhe(2-F)]TSD[4Pal]SILLDKK([γGlu-γGlu-C18 diacid])AQ[Aib]AFIEWLEEGGPSSGAPPPSGTE-NH2 [Example 549] | 3.67 nM | 76.2 nM | 655 nM | 0.0255 nM | 0.395 nM | 3.41 nM
5 | – | – | – | H-Y[Aib]QGT[αMePhe(2-F)]TSD[4Pal]SILLDKK([γGlu-γGlu-C18 diacid])AQ[Aib]AFIEWLQEGGPSSGEPPPSGTEE-NH2 [Example 579] | 3.79 nM | 67.3 nM | 679 nM | 0.0171 nM | 0.252 nM | 2.36 nM
6 | – | – | – | H-Y[Aib]QGT[αMePhe(2-F)]TSD[4Pal]SILLDKK([γGlu-γGlu-C18 diacid])AQ[Aib]AFIEYLEEGGPSSGAPPPEGTE-NH2 [Example 659] | 5.75 nM | 81.5 nM | 735 nM | 0.0673 nM | 1.31 nM | 5.89 nM
7 | – | – | – | H-Y[Aib]QGT[αMePhe(2-F)]TSD[4Pal]SILLDKK([γGlu-γGlu-C18 diacid])AQ[Aib]AFIEYLEEGGPSSGAPPPSGAGE-NH2 [Example 620] | 5.96 nM | 90.7 nM | 665 nM | 0.0706 nM | 0.981 nM | 8.26 nM
8 | – | – | – | H-Y[Aib]QGT[αMePhe(2-F)]TSD[4Pal]SILLDKK([γGlu-γGlu-C18 diacid])AQ[Aib]AFIEYLEEGGPSSGAPPPSGEEE-NH2 [Example 611] | 7.35 nM | 146 nM | 627 nM | 0.126 nM | 1.63 nM | 6.8 nM
9 | – | – | – | H-Y[Aib]QGT[αMePhe(2-F)]TSD[4Pal]SILLDKK([γGlu-γGlu-C18 diacid])AQ[Aib]AFIEYLEEGGPSSGAPPPSGEGE-NH2 [Example 621] | 7.31 nM | 111 nM | 901 nM | 0.0661 nM | 1.28 nM | 6.81 nM
10 | – | – | – | H-Y[Aib]QGT[αMePhe(2-F)]TSD[4Pal]SILLDKK([γGlu-γGlu-C18 diacid])AQ[Aib]AFIEYLEEGGPSSGAPPPSGGEE-NH2 [Example 612] | 7.58 nM | 126 nM | 640 nM | 0.087 nM | 1.21 nM | 7.13 nM
11 | – | – | – | H-Y[Aib]QGT[αMePhe(2-F)]TSD[4Pal]SILLDKK([γGlu-γGlu-C18 diacid])AQ[Aib]AFIEYLEEGGPSSGAPPPSGGGE-NH2 [Example 619] | 6.78 nM | 94 nM | 819 nM | 0.0685 nM | 0.992 nM | 6.34 nM
12 | – | – | – | H-Y[Aib]QGT[αMePhe(2-F)]TSD[4Pal]SILLDKK([γGlu-γGlu-C18 diacid])AQ[Aib]AFIEYLEEGGPSSGAPPPSGSEE-NH2 [Example 610] | 7.02 nM | 130 nM | 536 nM | 0.133 nM | 1.66 nM | 5.75 nM
13 | – | – | – | H-Y[Aib]QGT[αMePhe(2-F)]TSD[4Pal]SILLDKK([γGlu-γGlu-C18 diacid])AQ[Aib]AFIEYLEEGGPSSGAPPPSGSGE-NH2 [Example 618] | 4.63 nM | 88.9 nM | 691 nM | 0.0418 nM | 1.53 nM | 5.57 nM
14 | – | – | – | H-Y[Aib]QGT[αMePhe(2-F)]TSD[4Pal]SILLDKK([γGlu-γGlu-C18 diacid])AQ[Aib]AFIEYLEEGGPSSGAPPPSGTE-NH2 [Example 509] | 5.01 nM | 69.2 nM | 617 nM | 0.0557 nM | 0.65 nM | 4.66 nM
15 | – | – | – | H-Y[Aib]QGT[αMePhe(2-F)]TSD[4Pal]SILLDKK([γGlu-γGlu-C18 diacid])AQ[Aib]AFIEYLEEGGPSSGAPPPSGTEE-NH2 [Example 609] | 6.19 nM | 121 nM | 647 nM | 0.0784 nM | 1.07 nM | 6.46 nM
16 | – | – | – | H-Y[Aib]QGT[αMePhe(2-F)]TSD[4Pal]SILLDKK([γGlu-γGlu-C18 diacid])AQ[Aib]AFIEYLEEGGPSSGEPPPSGTEE-NH2 [Example 608] | 8.51 nM | 201 nM | 669 nM | 0.124 nM | 1.87 nM | 7.82 nM
17 | – | – | – | H-Y[Aib]QGT[αMePhe(2-F)]TSD[4Pal]SILLDKK([γGlu-γGlu-C18 diacid])AQ[Aib]AFIEYLEEGGPSSGEPPPSGTGE-NH2 [Example 607] | 6.63 nM | 139 nM | 565 nM | 0.0879 nM | 1.15 nM | 8.91 nM
18 | – | – | – | H-Y[Aib]QGT[αMePhe(2-F)]TSD[4Pal]SILLDKK([γGlu-γGlu-C18 diacid])AQ[Aib]AFIEYLQEGGPSSGAPPPSGTE-NH2 [Example 553] | 2.97 nM | 51 nM | 523 nM | 0.0371 nM | 0.398 nM | 4.53 nM
19 | – | – | – | H-Y[Aib]QGT[αMePhe(2-F)]TSD[4Pal]SILLDKK([γGlu-γGlu-C18 diacid])AQ[Aib]AFIE[4Pal]LEEGGPSSGAPPPSGTE-NH2 [Example 550] | 5.94 nM | 262 nM | 996 nM | 0.0876 nM | 2.12 nM | 11.7 nM
20 | – | – | – | H-Y[Aib]QGT[αMePhe(2-F)]TSD[4Pal]SILLDKK([γGlu-γGlu-C18 diacid])AQ[Aib]AFIE[αMeY]LEEGGPSSGAPPPSGEGE-NH2 [Example 667] | 1.46 nM | 33 nM | 215 nM | 0.0217 nM | 0.42 nM | 2.34 nM
21 | – | – | – | H-Y[Aib]QGT[αMePhe(2-F)]TSD[4Pal]SILLDKK([γGlu-γGlu-C18 diacid])AQ[Aib]AFIE[αMeY]LEEGGPSSGAPPPSGGGE-NH2 [Example 668] | 1.69 nM | 27.1 nM | 203 nM | 0.0198 nM | 0.325 nM | 2.03 nM
22 | – | – | – | H-Y[Aib]QGT[αMePhe(2-F)]TSD[4Pal]SILLDKK([γGlu-γGlu-C18 diacid])AQ[Aib]AFIE[αMeY]LEEGGPSSGAPPPSGTE-NH2 [Example 551] | 1.88 nM | 38.2 nM | 210 nM | 0.0173 nM | 0.303 nM | 1.74 nM
23 | – | – | – | H-Y[Aib]QGT[αMePhe(2-F)]TSD[4Pal]SILLDKK([γGlu-γGlu-C18 diacid])AQ[Aib]AFIE[αMeY]LEEGGPSSGAPPPSGTGE-NH2 [Example 664] | 1.18 nM | 27.7 nM | 179 nM | 0.0159 nM | 0.356 nM | 2.12 nM
24 | 0.0634 nM | 0.798 nM | 8.88 nM | H-Y[Aib]QGT[αMePhe(2-F)]TSD[4Pal]SILLDKQAQK([AEEA-AEEA-γGlu-C20 diacid])AFIEYLLEGGPSSGEPPPSEG-NH2 [Example 347] | 17.3 nM | 254 nM | 3650 nM | – | – | –
25 | – | – | – | H-Y[Aib]QGT[αMePhe(2-F)]TSD[4Pal]SILLD[Orn]K([γGlu-γGlu-C18 diacid])AQ[Aib]AFIEYLEEGGPSSGAPPPSGTE-NH2 [Example 513] | 10.3 nM | 78.2 nM | 1440 nM | 0.0956 nM | 0.634 nM | 9.58 nM
26 | – | – | – | H-Y[Aib]QGT[αMePhe(2-F)]TSD[4Pal]SILLD[Orn]K([γGlu-γGlu-C18 diacid])AQ[Aib]AFIEYLEEGGPSSGAPPPSGTGE-NH2 [Example 514] | 10 nM | 82 nM | 1150 nM | 0.0744 nM | 0.623 nM | 6.68 nM
27 | – | – | – | H-Y[Aib]QGT[αMePhe(2-F)]TSD[4Pal]SILLD[Orn]K([γGlu-γGlu-C18 diacid])AQ[Aib]AFIEYLQEGGPSSGAPPPSGTEE-NH2 [Example 581] | 7.29 nM | 65.9 nM | 1500 nM | 0.0812 nM | 0.406 nM | 8.18 nM
